Source: PubChem BioAssay AID2060610 (Molecular Pharmacology Branch, DTP, NCI, 2025)
Values joined by “and” are separate entries in the source; they are usually repeats but may differ in a detail not shown here. Equal values may be shown once.

Tested on: 616215-338-R-J1-PDC complex spheroids, viability % test/control
Assay: Anticancer human tumor 616215-338-R-J1-PDC patient-derived colon adenocarcinoma cell line growth inhibition [CLK]
Details: for viability, T/C: stronger effect = lower value
Outline: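 Multi-cell-type spheroids combined patient-derived tumor cells with HUVEC endothelial cells and human mesenchymal stem cells. Paired agents were dosed in half-log steps down from about clinical Cmax, or from 10 microM where Cmax was unknown.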

[1] = curve of first compound, second compound 0.0316 µM
[2] = curve of first compound, second compound 0.1 µM
[3] = curve of first compound, second compound 0.316 µM
[4] = curve of first compound, second compound 1 µM
[5] = curve of first compound, second compound 3.16 µM
[6] = curve of first compound, second compound 10 µM
[7] = second compound 0.0316 µM, first compound 0.0316 µM
[8] = second compound 0.0316 µM, first compound 0.1 µM
[9] = second compound 0.0316 µM, first compound 0.316 µM
[10] = second compound 0.0316 µM, first compound 1 µM
[11] = second compound 0.1 µM, first compound 0.0316 µM
[12] = second compound 0.1 µM, first compound 0.1 µM
[13] = second compound 0.1 µM, first compound 0.316 µM
[14] = second compound 0.1 µM, first compound 1 µM
[15] = second compound 0.316 µM, first compound 0.0316 µM
[16] = second compound 0.316 µM, first compound 0.1 µM
[17] = second compound 0.316 µM, first compound 0.316 µM
[18] = second compound 0.316 µM, first compound 1 µM
[19] = second compound 1 µM, first compound 0.0316 µM
[20] = second compound 1 µM, first compound 0.1 µM
[21] = second compound 1 µM, first compound 0.316 µM
[22] = second compound 1 µM, first compound 1 µM
[23] = second compound 3.16 µM, first compound 0.0316 µM
[24] = second compound 3.16 µM, first compound 0.1 µM
[25] = second compound 3.16 µM, first compound 0.316 µM
[26] = second compound 3.16 µM, first compound 1 µM
[27] = second compound 10 µM, first compound 0.0316 µM
[28] = second compound 10 µM, first compound 0.1 µM
[29] = second compound 10 µM, first compound 0.316 µM
[30] = second compound 10 µM, first compound 1 µM
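Further: spheroids exposed to agents for 7 days.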
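Wherever viability, T/C is given: 100% = DMSO vehicle wells.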

## CCc1c2c(nc3ccc(O)cc13)-c1cc3c(c(=O)n1C2)COC(=O)[C@]3(O)CC + CNC(=O)c1ccc(Nc2nc(OC3CCCC3)c3c(-c4ccc5nc(C)oc5c4)c[nH]c3n2)c(OC)c1
[1]
  IC50: 13.5 nM
[2]
  IC50: 7.31 nM
[3]
  IC50: < 3.16 nM
[4]
  IC50: 3.52 nM
[5]
  IC50: < 3.16 nM
[6]
  IC50: < 3.16 nM
Second compound 0.0316 µM, first compound 0.00316 µM
  viability, T/C: 111%
Second compound 0.0316 µM, first compound 0.01 µM
  viability, T/C: 51.1%
[7]
  viability, T/C: 35.8%
[8]
  viability, T/C: 25.6%
[9]
  viability, T/C: 14.6%
[10]
  viability, T/C: 9.31%
Second compound 0.1 µM, first compound 0.00316 µM
  viability, T/C: 56.9%
Second compound 0.1 µM, first compound 0.01 µM
  viability, T/C: 51.3%
[11]
  viability, T/C: 27.3%
[12]
  viability, T/C: 21.5%
[13]
  viability, T/C: 14.6%
[14]
  viability, T/C: 5.13%
Second compound 0.316 µM, first compound 0.00316 µM
  viability, T/C: 37.9%
Second compound 0.316 µM, first compound 0.01 µM
  viability, T/C: 38.9%
[15]
  viability, T/C: 24.8%
[16]
  viability, T/C: 20.2%
[17]
  viability, T/C: 14.6%
[18]
  viability, T/C: 1.77%
Second compound 1 µM, first compound 0.00316 µM
  viability, T/C: 53.5%
Second compound 1 µM, first compound 0.01 µM
  viability, T/C: 28.5%
[19]
  viability, T/C: 18.4%
[20]
  viability, T/C: 17.2%
[21]
  viability, T/C: 11.8%
[22]
  viability, T/C: 1.4%
Second compound 3.16 µM, first compound 0.00316 µM
  viability, T/C: 37%
Second compound 3.16 µM, first compound 0.01 µM
  viability, T/C: 27.3%
[23]
  viability, T/C: 17.1%
[24]
  viability, T/C: 14.9%
[25]
  viability, T/C: 11.8%
[26]
  viability, T/C: 2.58%
Second compound 10 µM, first compound 0.00316 µM
  viability, T/C: 40.6%
Second compound 10 µM, first compound 0.01 µM
  viability, T/C: 25.2%
[27]
  viability, T/C: 18.5%
[28]
  viability, T/C: 17.3%
[29]
  viability, T/C: 11.6%
[30]
  viability, T/C: 1.03%

## CCN1CCN(Cc2ccc(Nc3ncc(F)c(-c4cc(F)c5nc(C)n(C(C)C)c5c4)n3)nc2)CC1
Compound 0.00316 µM
  viability, T/C: 104% and 92%
Compound 0.01 µM
  viability, T/C: 125% and 93.7%
Compound 0.0316 µM
  viability, T/C: 111% and 103%
Compound 0.1 µM
  viability, T/C: 139% and 121%
Compound 0.316 µM
  viability, T/C: 158% and 189%
Compound 1 µM
  viability, T/C: 59.4% and 69.7%
Curve of compound
  IC50: > 1000 nM

## CC(C)CC(NC(=O)C(Cc1ccccc1)NC(=O)c1cnccn1)B(O)O (configuration not stated) + CN1CCN(c2cc(C(=O)Nc3cc4cc(-c5cnn(C)c5)ccc4cn3)ccn2)CC1
[1]
  IC50: 5.54 nM
[2]
  IC50: 5.8 nM
[3]
  IC50: < 0.949 nM
[4]
  IC50: < 0.949 nM
[5]
  IC50: < 0.949 nM
[6]
  IC50: < 0.949 nM
Second compound 0.0316 µM, first compound 0.000949 µM
  viability, T/C: 105%
Second compound 0.0316 µM, first compound 0.003 µM
  viability, T/C: 107%
Second compound 0.0316 µM, first compound 0.00949 µM
  viability, T/C: 1.23%
Second compound 0.0316 µM, first compound 0.03 µM
  viability, T/C: 0.23%
Second compound 0.0316 µM, first compound 0.0949 µM
  viability, T/C: 0.16%
Second compound 0.0316 µM, first compound 0.3 µM
  viability, T/C: 1.94%
Second compound 0.1 µM, first compound 0.000949 µM
  viability, T/C: 121%
Second compound 0.1 µM, first compound 0.003 µM
  viability, T/C: 116%
Second compound 0.1 µM, first compound 0.00949 µM
  viability, T/C: 0.22%
Second compound 0.1 µM, first compound 0.03 µM
  viability, T/C: 0.19%
Second compound 0.1 µM, first compound 0.0949 µM
  viability, T/C: 0.18%
Second compound 0.1 µM, first compound 0.3 µM
  viability, T/C: 0.18%
Second compound 0.316 µM, first compound 0.000949 µM
  viability, T/C: 29.7%
Second compound 0.316 µM, first compound 0.003 µM
  viability, T/C: 4.76%
Second compound 0.316 µM, first compound 0.00949 µM
  viability, T/C: 0.19%
Second compound 0.316 µM, first compound 0.03 µM
  viability, T/C: 0.14%
Second compound 0.316 µM, first compound 0.0949 µM
  viability, T/C: 0.16%
Second compound 0.316 µM, first compound 0.3 µM
  viability, T/C: 0.13%
Second compound 1 µM, first compound 0.000949 µM
  viability, T/C: 0.15%
Second compound 1 µM, first compound 0.003 µM
  viability, T/C: 0.17%
Second compound 1 µM, first compound 0.00949 µM
  viability, T/C: 0.34%
Second compound 1 µM, first compound 0.03 µM
  viability, T/C: 0.1%
Second compound 1 µM, first compound 0.0949 µM
  viability, T/C: 0.1%
Second compound 1 µM, first compound 0.3 µM
  viability, T/C: 1.57%
Second compound 3.16 µM, first compound 0.000949 µM
  viability, T/C: 0.09%
Second compound 3.16 µM, first compound 0.003 µM
  viability, T/C: 0.13%
Second compound 3.16 µM, first compound 0.00949 µM
  viability, T/C: 0.12%
Second compound 3.16 µM, first compound 0.03 µM
  viability, T/C: 0.08%
Second compound 3.16 µM, first compound 0.0949 µM
  viability, T/C: 1.71%
Second compound 3.16 µM, first compound 0.3 µM
  viability, T/C: 0.13%
Second compound 10 µM, first compound 0.000949 µM
  viability, T/C: 0.08%
Second compound 10 µM, first compound 0.003 µM
  viability, T/C: 0.13%
Second compound 10 µM, first compound 0.00949 µM
  viability, T/C: 0.15%
Second compound 10 µM, first compound 0.03 µM
  viability, T/C: 0.11%
Second compound 10 µM, first compound 0.0949 µM
  viability, T/C: 2.22%
Second compound 10 µM, first compound 0.3 µM
  viability, T/C: 0.2%

## Cn1ncnc1[C@H]1c2n[nH]c(=O)c3cc(F)cc(c23)N[C@@H]1c1ccc(F)cc1
Compound 0.000316 µM
  viability, T/C: 92% and 98.4%
Compound 0.001 µM
  viability, T/C: 105% and 97.6%
Compound 0.00316 µM
  viability, T/C: 102% and 94.1%
Compound 0.01 µM
  viability, T/C: 95% and 95.3%
Compound 0.0316 µM
  viability, T/C: 116% and 114%
Compound 0.1 µM
  viability, T/C: 106% and 116%
Curve of compound
  IC50: > 100 nM

## CNC(=O)c1ccc(Nc2nc(OC3CCCC3)c3c(-c4ccc5nc(C)oc5c4)c[nH]c3n2)c(OC)c1
Compound 0.0316 µM
  viability, T/C: 90.7% [middle of 12 runs]
Compound 0.1 µM
  viability, T/C: 55.7% [middle of 12 runs]
Compound 0.316 µM
  viability, T/C: 44.2% [middle of 12 runs]
Compound 1 µM
  viability, T/C: 45.1% [middle of 12 runs]
Compound 3.16 µM
  viability, T/C: 42.3% [middle of 12 runs]
Compound 10 µM
  viability, T/C: 40.3% [middle of 12 runs]
Compound alone, run of 08/01/2023
  IC50: 177 nM [middle of 12 runs]

## COc1cccc2c1C(=O)c1c(O)c3c(c(O)c1C2=O)CC(O)(C(=O)CO)CC3OC1CC(N)C(O)C(C)O1 (configuration not stated) + CNC(=O)c1ccc(Nc2nc(OC3CCCC3)c3c(-c4ccc5nc(C)oc5c4)c[nH]c3n2)c(OC)c1
[1]
  IC50: 328 nM
[2]
  IC50: 340 nM
[3]
  IC50: < 31.6 nM
[4]
  IC50: 494 nM
[5]
  IC50: 548 nM
[6]
  IC50: 533 nM
[7]
  viability, T/C: 111%
[8]
  viability, T/C: 72.6%
[9]
  viability, T/C: 54.1%
[10]
  viability, T/C: 34.5%
Second compound 0.0316 µM, first compound 3.16 µM
  viability, T/C: 1.22%
Second compound 0.0316 µM, first compound 10 µM
  viability, T/C: 0.82%
[11]
  viability, T/C: 53.8%
[12]
  viability, T/C: 57.7%
[13]
  viability, T/C: 42.7%
[14]
  viability, T/C: 35.9%
Second compound 0.1 µM, first compound 3.16 µM
  viability, T/C: 0.57%
Second compound 0.1 µM, first compound 10 µM
  viability, T/C: 0.99%
[15]
  viability, T/C: 55.7%
[16]
  viability, T/C: 47.1%
[17]
  viability, T/C: 46.8%
[18]
  viability, T/C: 42.1%
Second compound 0.316 µM, first compound 3.16 µM
  viability, T/C: 0.32%
Second compound 0.316 µM, first compound 10 µM
  viability, T/C: 0.17%
[19]
  viability, T/C: 49.7%
[20]
  viability, T/C: 61.3%
[21]
  viability, T/C: 75.6%
[22]
  viability, T/C: 30.7%
Second compound 1 µM, first compound 3.16 µM
  viability, T/C: 0.2%
Second compound 1 µM, first compound 10 µM
  viability, T/C: 0.17%
[23]
  viability, T/C: 61.8%
[24]
  viability, T/C: 66.6%
[25]
  viability, T/C: 81.3%
[26]
  viability, T/C: 28.3%
Second compound 3.16 µM, first compound 3.16 µM
  viability, T/C: 0.16%
Second compound 3.16 µM, first compound 10 µM
  viability, T/C: 2.18%
[27]
  viability, T/C: 58.2%
[28]
  viability, T/C: 56%
[29]
  viability, T/C: 79.7%
[30]
  viability, T/C: 32.4%
Second compound 10 µM, first compound 3.16 µM
  viability, T/C: 0.24%
Second compound 10 µM, first compound 10 µM
  viability, T/C: 1.24%
